Test results as given in ChEMBL document CHEMBL4610009, “Modification of the lead molecule: Tryptophan and piperidine appended triazines reversing inflammation and hyeperalgesia in rats” (Bioorg Med Chem, 2020).
Values after ≈ are worked out from the molar mass of the structure shown. Active and inactive are the calls of the source. The calls are words filed in the database; no cut-off is given here.

Experiments:
[1] = biological target: T1, Prostaglandin G/H synthase 1 (Ovis aries, UniProt P05979); test: Inhibition of ovine COX1 using arachidonic acid as substrate incubated for 10 mins followed by substrate addition and measured after 2 mins by EIA assay
T1 sequence (P05979 whole entry): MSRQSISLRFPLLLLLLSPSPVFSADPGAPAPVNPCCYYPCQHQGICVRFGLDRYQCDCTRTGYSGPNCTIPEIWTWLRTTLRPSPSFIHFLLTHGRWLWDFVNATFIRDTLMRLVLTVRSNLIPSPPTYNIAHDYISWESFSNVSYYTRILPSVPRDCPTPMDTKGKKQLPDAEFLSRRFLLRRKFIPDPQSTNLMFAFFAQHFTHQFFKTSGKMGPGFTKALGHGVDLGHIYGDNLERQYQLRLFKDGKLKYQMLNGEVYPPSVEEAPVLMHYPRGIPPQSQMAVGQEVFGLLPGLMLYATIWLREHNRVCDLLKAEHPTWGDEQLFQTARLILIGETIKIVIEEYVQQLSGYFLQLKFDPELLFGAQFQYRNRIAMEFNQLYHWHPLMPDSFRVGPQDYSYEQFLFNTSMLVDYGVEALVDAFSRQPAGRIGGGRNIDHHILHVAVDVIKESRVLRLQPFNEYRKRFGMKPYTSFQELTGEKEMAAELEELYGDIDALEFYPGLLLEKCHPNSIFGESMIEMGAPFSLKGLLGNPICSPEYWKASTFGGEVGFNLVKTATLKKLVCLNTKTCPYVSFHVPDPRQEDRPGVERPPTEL

Rattus norvegicus [2] = test: Analgesic activity in Wistar rat assessed as reduction in acetic acid-induced writhing at 10 mg/kg, ip incubated for 30 mins followed by acetic acid addition and observed for 30 mins; assay type: functional, organism-based
[3] = Protein binding in plasma (unknown origin); assay type: ADME, cell-free; details: read-out: PPB (converted)
[4] = Ratio of drug level in brain to blood (unknown origin); assay type: ADME, tissue-based; details: read-out: BBR
[5] = Solubility of compound in pure water; assay type: physicochemical
[6] = Drug absorption in human intestine; assay type: ADME, tissue-based; details: read-out: Drug absorption
[7] = biological target: Prostaglandin G/H synthase 1 (Homo sapiens) (UniProt P23219); test: Inhibition of calcium ionophore-activated COX1 in human whole blood assessed as TXB2 level at 1 uM by ELISA; assay type: tissue-based
Prostaglandin G/H synthase 1 (Homo sapiens), sequence (P23219 whole entry): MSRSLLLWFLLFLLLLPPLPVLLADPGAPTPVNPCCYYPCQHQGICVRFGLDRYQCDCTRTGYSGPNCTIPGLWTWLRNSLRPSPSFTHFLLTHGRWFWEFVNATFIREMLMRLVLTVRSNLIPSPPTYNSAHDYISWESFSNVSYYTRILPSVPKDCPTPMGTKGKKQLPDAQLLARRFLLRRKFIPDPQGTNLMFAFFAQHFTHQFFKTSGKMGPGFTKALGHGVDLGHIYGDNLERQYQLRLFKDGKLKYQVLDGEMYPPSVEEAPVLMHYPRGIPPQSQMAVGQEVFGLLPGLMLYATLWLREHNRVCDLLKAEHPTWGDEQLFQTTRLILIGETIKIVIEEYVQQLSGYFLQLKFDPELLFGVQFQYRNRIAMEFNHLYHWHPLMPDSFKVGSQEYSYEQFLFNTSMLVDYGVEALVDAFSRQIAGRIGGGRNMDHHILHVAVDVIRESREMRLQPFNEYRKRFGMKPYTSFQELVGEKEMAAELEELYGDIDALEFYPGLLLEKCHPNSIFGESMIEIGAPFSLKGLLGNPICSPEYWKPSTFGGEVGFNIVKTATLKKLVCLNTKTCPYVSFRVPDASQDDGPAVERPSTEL

Rattus norvegicus [8] = test: Analgesic activity in Wistar rat assessed as reduction in acetic acid-induced writhing at 10 mg/kg, ip incubated for 30 mins followed by acetic acid addition and observed for 30 mins relative to control; assay type: functional; details: 0.5 h
Rattus norvegicus [9] = test: Analgesic activity in Wistar rat assessed as reduction in formalin-induced flitching in neurogenic phase at 10 mg/kg, ip incubated for 30 mins followed by formalin addition and observed for 60 mins; assay type: functional, organism-based
Rattus norvegicus [10] = test: Analgesic activity in Wistar rat assessed as reduction in formalin-induced flitching in inflammatory phase at 10 mg/kg, ip incubated for 30 mins followed by formalin addition and observed for 60 mins; assay type: functional, organism-based
[11] = biological target: T2, Prostaglandin G/H synthase 2 (Rattus norvegicus) (UniProt P35355); test: In vivo inhibition of COX2 in Wistar rat assessed as reduction in formalin-induced COX2 expression at 10 mg/kg, ip incubated for 30 mins followed by formalin addition and measured after 2 hrs by immunofluorescence based assay; assay type: functional, organism-based
T2 sequence (whole entry): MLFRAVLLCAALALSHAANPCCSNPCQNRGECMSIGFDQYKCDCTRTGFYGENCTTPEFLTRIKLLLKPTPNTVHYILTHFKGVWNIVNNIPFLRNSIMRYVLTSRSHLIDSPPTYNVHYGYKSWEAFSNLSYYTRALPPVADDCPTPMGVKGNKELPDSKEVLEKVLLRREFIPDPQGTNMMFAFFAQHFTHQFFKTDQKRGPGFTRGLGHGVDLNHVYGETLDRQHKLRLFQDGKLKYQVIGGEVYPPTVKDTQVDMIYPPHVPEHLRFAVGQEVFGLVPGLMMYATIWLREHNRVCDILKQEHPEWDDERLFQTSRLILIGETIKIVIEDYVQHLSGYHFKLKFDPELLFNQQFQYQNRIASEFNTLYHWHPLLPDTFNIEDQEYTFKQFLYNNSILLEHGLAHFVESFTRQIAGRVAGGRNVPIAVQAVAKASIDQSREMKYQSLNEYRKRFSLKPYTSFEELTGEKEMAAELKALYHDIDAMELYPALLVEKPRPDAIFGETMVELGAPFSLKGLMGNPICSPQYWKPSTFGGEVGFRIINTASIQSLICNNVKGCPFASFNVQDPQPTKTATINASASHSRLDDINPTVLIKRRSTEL

[12] = Acute toxicity in Wistar rat assessed as behavioral alterations at 2000 mg/kg, po observed for 14 days; assay type: organism-based; details: in vivo, 336 h
[13] = Acute toxicity in Wistar rat assessed as effect on liver at 2000 mg/kg, po measured after 14 days by hematoxylin-eosin staining based light microscopy; assay type: organism-based; details: in vivo, 336 h
[14] = Acute toxicity in Wistar rat assessed as effect on kidney at 2000 mg/kg, po measured after 14 days by hematoxylin-eosin staining based light microscopy; assay type: organism-based; details: in vivo, 336 h

O=C1COCCN1c1ccc(Nc2nc(Cl)nc(OCc3cn(Cc4ccccc4)nn3)n2)cc1
IC50 [1]: 6 µM

COC(=O)[C@H](Cc1ccccc1)n1cc(COc2nc(Cl)nc(Nc3ccc(N4CCOCC4=O)cc3)n2)nn1
IC50 [1]: 8 µM

COC(=O)[C@@H](N)Cc1ccc(Oc2nc(Cl)nc(N3CCOCC3)n2)cc1
Activity (Rattus norvegicus [2]): Active

COC(=O)[C@H](Cc1ccccc1)n1cc(COc2nc(Cl)nc(N3CCCC3)n2)nn1
IC50 [1]: > 10 µM

COC(=O)[C@H](Cc1c[nH]c2ccccc12)n1cc(COc2nc(Cl)nc(N3CCCCC3)n2)nn1
IC50 [1]: > 10 µM

COC(=O)[C@H](Cc1ccc(O)cc1)n1cc(COc2nc(Cl)nc(N3CCCC3)n2)nn1
IC50 [1]: > 10 µM

N[C@@H](Cc1cn(-c2nc(Cl)nc(N3CCOCC3)n2)c2ccccc12)C(=O)O
IC50 [1]: 1 µM | fraction unbound [3]: 0.324 | Kp [4]: 0.19 | solubility [5]: 5810 µg/mL (≈ 14.4 mM) | Fa [6]: 96.9%

Clc1nc(OCc2cn(Cc3ccccc3)nn2)nc(N2CCCC2)n1
IC50 [1]: 8 µM

Clc1ccc(Nc2nc(Cl)nc(OCc3cn(Cc4ccccc4)nn3)n2)cc1
IC50 [1]: 4 µM

COC(=O)[C@H](Cc1cn(-c2nc(Cl)nc(Nc3ccc(N4CCOCC4=O)cc3)n2)c2ccccc12)NC(=O)OC(C)(C)C
Activity (Rattus norvegicus [2]): Active

COC(=O)[C@@H](N)Cc1ccc(Oc2nc(Cl)nc(N3CCCCC3)n2)cc1
IC50 [1]: > 10 µM

COC(=O)[C@H](Cc1c[nH]c2ccccc12)n1cc(COc2nc(Cl)nc(N3CCOCC3)n2)nn1
IC50 [1]: > 10 µM

O=C(O)c1ccccc1Nc1nc(Cl)nc(Nc2ccc(N3CCOCC3=O)cc2)n1
IC50 [1]: > 10 µM

COc1ccc2c(c1)c(CC(=O)O)c(C)n2C(=O)c1ccc(Cl)cc1 [INDOMETHACIN]
Activity [7]: 0.59 ng/mL | inhibition in vivo at 10 mg/kg (Rattus norvegicus [8]): 70% | Activity (Rattus norvegicus [9]): Active | Activity (Rattus norvegicus [10]): Active

COC(=O)[C@H](Cc1ccccc1)n1cc(COc2nc(Cl)nc(Nc3ccc(Cl)cc3)n2)nn1
IC50 [1]: 5 µM

COC(=O)[C@@H](N)Cc1cn(-c2nc(Cl)nc(N3CCCCC3)n2)c2ccccc12
IC50 [1]: > 10 µM | Activity [7]: 0.84 ng/mL | inhibition in vivo at 10 mg/kg (Rattus norvegicus [8]): 65% | Activity (Rattus norvegicus [9]): Active | inhibition [11]: Active | Activity [12]: Non-Toxic | Activity [13]: Non-Toxic | Activity [14]: Non-Toxic | fraction unbound [3]: 0.149 | Kp [4]: 0.66 | solubility [5]: 740 µg/mL (≈ 1.78 mM) | Fa [6]: 98.2% | Activity (Rattus norvegicus [10]): Active

Clc1nc(OCc2cn(Cc3ccccc3)nn2)nc(N2CCOCC2)n1
IC50 [1]: > 10 µM

COC(=O)[C@@H](N)Cc1cn(-c2nc(Cl)nc(Nc3ccc(N4CCOCC4=O)cc3)n2)c2ccccc12
IC50 [1]: > 10 µM | Activity [7]: 0.9 ng/mL | inhibition in vivo at 10 mg/kg (Rattus norvegicus [8]): 73% | Activity (Rattus norvegicus [9]): Active | inhibition [11]: Active | fraction unbound [3]: 0.124 | Kp [4]: 0.09 | solubility [5]: 30 µg/mL (≈ 0.0575 mM) | Fa [6]: 97.2% | Activity (Rattus norvegicus [10]): Active

COC(=O)[C@H](Cc1ccccc1)Nc1nc(Cl)nc(Nc2ccc(N3CCOCC3=O)cc2)n1
IC50 [1]: > 10 µM | Activity (Rattus norvegicus [2]): Active

O=C1COCCN1c1ccc(Nc2nc(Cl)nc(N3CCCC3)n2)cc1
IC50 [1]: > 10 µM | fraction unbound [3]: 0.143 | Kp [4]: 0.01 | solubility [5]: 4910 µg/mL (≈ 13.1 mM) | Fa [6]: 96.8%

COC(=O)[C@H](Cc1ccccc1)n1cc(COc2nc(Cl)nc(N3CCOCC3)n2)nn1
IC50 [1]: > 10 µM

CC[C@H](C)[C@H](Nc1nc(Cl)nc(Nc2ccc(N3CCOCC3=O)cc2)n1)C(=O)OC
IC50 [1]: > 10 µM | Activity (Rattus norvegicus [2]): Active

COC(=O)[C@H](Cc1ccc(O)cc1)n1cc(COc2nc(Cl)nc(N3CCOCC3)n2)nn1
IC50 [1]: > 10 µM

COC(=O)[C@@H]1CCCN1c1nc(Cl)nc(Nc2ccc(N3CCOCC3=O)cc2)n1
Activity (Rattus norvegicus [2]): Active

COC(=O)[C@H](Cc1ccc(O)cc1)n1cc(COc2nc(Cl)nc(Nc3ccc(N4CCOCC4=O)cc3)n2)nn1
IC50 [1]: > 10 µM
